# Reference: PubChem BioAssay AID2060355 (Molecular Pharmacology Branch, DTP, NCI, 2025)
# Values joined by “and” are separate entries in the source; they are usually repeats but may differ in a detail not shown here. Equal values may be shown once.
# Test system: 485368-065-R4-J2-PDC spheroids with HUVEC/MSC, viability
# Assay: Anticancer human tumor 485368-065-R4-J2-PDC patient-derived pancreatic carcinoma cell line growth inhibition [TAK]
# Conditions: for viability, T/C: stronger effect = lower value
# From the text: Combinatorial screen of targeted agents with TAK-243 and ipatasertib in multi-cell type tumor spheroids
# A high-throughput screen of multi-cell type tumor spheroids was designed to identify active combinations of targeted small molecules and TAK-243 or ipatasertib. Complex spheroids include a stromal component modeled by human endothelial cells (HUVEC) and fibroblasts modeled by human mesenchymal stem cells (MSCs). The concentration ranges selected for each drug and investigational agent were based upon clinically achievable concentrations if the clinical Cmax of the agent was known.
# Compounds. The drugs and investigational agents: TAK-243 (785004), ipatasertib (767898), everolimus (733504), selumetinib (741078), bortezomib (756655), trametinib (758246), ixazomib (758254), vemurafenib (761431), dabrafenib (764134), sapanisertib (764658), alpelisib (765974), and copanlisib (816437), were obtained from the National Cancer Institute (NCI) Developmental Therapeutics Program Chemical Repository. The FDA-approved anticancer drug set is available from the NCI Developmental Therapeutics Program. […] The stock solutions were prepared in dimethyl sulfoxide (DMSO, Sigma-Aldrich, St. Louis, MO, cat. D2650) at 800-fold the tested concentration and stored at -70 degrees C prior to their use. All drugs and investigational agents were tested over a range starting from a high concentration at or near the clinical Cmax and decreasing in half-log increments. If the clinical Cmax for an agent had not been determined, the highest concentration tested was 10 microM.
# NCI60 Cell Culture. NCI60 cell lines were obtained from the NCI Developmental Therapeutics Program Tumor Repository. For each lot of cells, the Repository performed Applied Biosystems AmpFLSTR Identifiler testing with PCR amplification to confirm consistency with the published Identifier STR profile for each cell line. Cells were kept in continuous culture for no more than 20 passages. The optimal seeding densities for each of the cell lines at each time point assessed were determined prior to performing the concentration response studies. Briefly, the NCI60 human tumor lines were grown as monolayers in RPMI 1640 medium supplemented with 10% FBS and 2 mmol/L L-glutamine.
# An additional 2 lines were from the NCI60 cell line panel including melanomas, MALME-3M and SK-MEL-2. Pooled donor human umbilical vein endothelial cells (HUVEC, Lonza, cat. CC-2519) and human mesenchymal stem cells (hMSC, Lonza, cat. PT-2501) were purchased from Lonza (Walkersville, MD).
# PDMR cell lines were grown in complete medium (DC medium): Dulbecco's modified Eagle's medium (DMEM)/F12 supplemented with 5% fetal bovine serum (FBS), 2 mM L-glutamine, 100 U/mL penicillin and 100 µg/ml streptomycin, 0.4 µg/ml hydrocortisone, 10 ng/ml epidermal growth factor (EGF) recombinant human protein, 24 µg/mL adenine, and 0.1 mg/mL primocin. During culture from frozen stock vials, PDMR cells were cultured in the same medium containing 10 µM Y-27632 (see Table 3). The PDCs were cultured in complete DMEM/F12 media without 10 microM Y-27632 dihydrochloride for at least two passages prior to the screen. The pooled donor HUVEC and hMSC were cultured in endothelial cell growth medium 2 (PromoCell, Heidelberg, Germany, cat. C-22011) and mesenchymal stem cell growth medium 2 (PromoCell, cat. C-28009), respectively. For all experiments, HUVEC and hMSC were used at passages </=5.
# For the pre-screen, cell seeding densities were determined from a titration spanning the range from 5,000 to 313 cells per well. The mct-spheroids including 60% malignant cells, 25% HUVEC and 15% MSC dispensed as a mixture into U-bottom Ultra-Low Attachment 384-well plates (Corning, NY)
# High-throughput Drug Combination Screening.
# Prior to their inoculation into 384-well plates, malignant cells, HUVEC, and hMSC were removed from T flasks using TrypLE express (Thermo Fisher Scientific, cat. 12605036) and harvested by centrifugation for 5 min at 233 x g. […]
# 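Note: spheroids exposed to compounds for seven days before readout.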
# 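Throughout, for viability, T/C: 100% = DMSO vehicle control wells.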
compound,measurement,setting,value
CC(=O)Nc1cccc(-n2c(=O)n(C3CC3)c(=O)c3c(Nc4ccc(I)cc4F)n(C)c(=O)c(C)c32)c1,"viability, T/C",compound 94.9 pM,99.6% and 93%
same,"viability, T/C",compound 0.0003 µM,77.8% and 84%
same,"viability, T/C",compound 0.000949 µM,63.6% and 75.9%
same,"viability, T/C",compound 0.003 µM,62.5% and 71%
same,"viability, T/C",compound 0.00949 µM,45.7% and 50.3%
same,"viability, T/C",compound 0.03 µM,29.4% and 30.5%
same,IC50,curve of compound,5.19 nM and 10.4 nM
CC(C)(C)c1nc(-c2cccc(NS(=O)(=O)c3c(F)cccc3F)c2F)c(-c2ccnc(N)n2)s1,"viability, T/C",compound 0.0316 µM,111% and 113%
same,"viability, T/C",compound 0.1 µM,101% and 105%
same,"viability, T/C",compound 0.316 µM,84.3% and 89.6%
same,"viability, T/C",compound 1 µM,57.7% and 75.8%
same,"viability, T/C",compound 3.16 µM,57% and 60.5%
same,"viability, T/C",compound 10 µM,49.8% and 54.4%
same,IC50,curve of compound,> 10000 nM
CC(C)CC(NC(=O)C(Cc1ccccc1)NC(=O)c1cnccn1)B(O)O (stereo unspecified),"viability, T/C",compound 31.6 pM,108% and 103%
same,"viability, T/C",compound 0.0001 µM,101%
same,"viability, T/C",compound 0.000316 µM,96.3% and 89.7%
same,"viability, T/C",compound 0.001 µM,99% and 102%
same,"viability, T/C",compound 0.00316 µM,107% and 114%
same,"viability, T/C",compound 0.01 µM,9.55% and 6.03%
same,IC50,curve of compound,6.05 nM and 5.9 nM
CC(C)CC(NC(=O)CNC(=O)c1cc(Cl)ccc1Cl)B1OC(=O)CC(CC(=O)O)(C(=O)O)O1 (stereo unspecified),"viability, T/C",compound 0.000316 µM,94.9% and 95.6%
same,"viability, T/C",compound 0.001 µM,102% and 98.5%
same,"viability, T/C",compound 0.00316 µM,94.6% and 94.7%
same,"viability, T/C",compound 0.01 µM,108% and 110%
same,"viability, T/C",compound 0.0316 µM,61.6% and 60.1%
same,"viability, T/C",compound 0.1 µM,9.41% and 9.34%
same,IC50,curve of compound,40.8 nM and 39.7 nM
CC(C)NCC(C(=O)N1CCN(c2ncnc3c2C(C)CC3O)CC1)c1ccc(Cl)cc1 (stereo unspecified),"viability, T/C",compound 0.3 µM,95.9% [middle of 10 runs]
same,"viability, T/C",compound 0.949 µM,94.7% [middle of 10 runs]
same,"viability, T/C",compound 3 µM,99.1% [middle of 10 runs]
same,"viability, T/C",compound 9.49 µM,91.6% [middle of 10 runs]
same,"viability, T/C",compound 30 µM,78% [middle of 10 runs]
same,IC50,"compound alone, run of 02/20/2020",> 30000 nM
CC(C)n1nc(-c2ccc3oc(N)nc3c2)c2c(N)ncnc21,"viability, T/C",compound 0.000316 µM,102% and 92.5%
same,"viability, T/C",compound 0.001 µM,103% and 94.1%
same,"viability, T/C",compound 0.00316 µM,89.2% and 90.2%
same,"viability, T/C",compound 0.01 µM,87.3% and 94.1%
same,"viability, T/C",compound 0.0316 µM,63.8% and 72.8%
same,"viability, T/C",compound 0.1 µM,44.3% and 46.3%
same,IC50,curve of compound,72.5 nM and 85 nM
CCCS(=O)(=O)Nc1ccc(F)c(C(=O)c2c[nH]c3ncc(-c4ccc(Cl)cc4)cc23)c1F,"viability, T/C",compound 0.316 µM,110% and 92.4%
same,"viability, T/C",compound 1 µM,102% and 117%
same,"viability, T/C",compound 3.16 µM,89.2% and 101%
same,"viability, T/C",compound 10 µM,43.3% and 56.3%
same,"viability, T/C",compound 31.6 µM,99.8% and 46.6%
same,"viability, T/C",compound 100 µM,91.2% and 106%
same,IC50,curve of compound,> 100000 nM
COC1CC2CCC(C)C(O)(O2)C(=O)C(=O)N2CCCCC2C(=O)OC(C(C)CC2CCC(OCCO)C(OC)C2)CC(=O)C(C)C=C(C)C(O)C(OC)C(=O)C(C)CC(C)C=CC=CC=C1C (stereo unspecified),"viability, T/C",compound 0.000316 µM,89.3% and 76.4%
same,"viability, T/C",compound 0.001 µM,95.4% and 82.8%
same,"viability, T/C",compound 0.00316 µM,91.1% and 89.1%
same,"viability, T/C",compound 0.01 µM,92.2% and 96.3%
same,"viability, T/C",compound 0.0316 µM,92.8% and 90.3%
same,"viability, T/C",compound 0.1 µM,88.8% and 86.1%
same,IC50,curve of compound,> 100 nM
COc1c(OCCCN2CCOCC2)ccc2c3n(c(=NC(=O)c4cnc(N)nc4)nc12)CCN3,"viability, T/C",compound 0.00316 µM,95.2% and 89.6%
same,"viability, T/C",compound 0.01 µM,74.6% and 75.8%
same,"viability, T/C",compound 0.0316 µM,72.5% and 70.2%
same,"viability, T/C",compound 0.1 µM,56.2% and 51.2%
same,"viability, T/C",compound 0.316 µM,32.7% and 29.9%
same,"viability, T/C",compound 1 µM,29.5% and 26.7%
same,IC50,curve of compound,126 nM and 96.9 nM
Cc1nc(NC(=O)N2CCCC2C(N)=O)sc1-c1ccnc(C(C)(C)C(F)(F)F)c1 (stereo unspecified),"viability, T/C",compound 0.0316 µM,100% and 99.2%
same,"viability, T/C",compound 0.1 µM,92.8% and 93%
same,"viability, T/C",compound 0.316 µM,81.5% and 77.7%
same,"viability, T/C",compound 1 µM,81.9% and 78.4%
same,"viability, T/C",compound 3.16 µM,73.4% and 71.8%
same,"viability, T/C",compound 10 µM,51% and 48.5%
same,IC50,curve of compound,> 10000 nM
Cn1cnc2c(F)c(Nc3ccc(Br)cc3Cl)c(C(=O)NOCCO)cc21,"viability, T/C",compound 0.00949 µM,70.9% and 67.5%
same,"viability, T/C",compound 0.03 µM,68.9% and 66.8%
same,"viability, T/C",compound 0.0949 µM,76.3% and 60.8%
same,"viability, T/C",compound 0.3 µM,64.8% and 51%
same,"viability, T/C",compound 0.949 µM,54.1% and 43.5%
same,"viability, T/C",compound 3 µM,36.9% and 30.2%
same,IC50,curve of compound,1220 nM and 405 nM
COC1CC2CCC(C)C(O)(O2)C(=O)C(=O)N2CCCCC2C(=O)OC(C(C)CC2CCC(OCCO)C(OC)C2)CC(=O)C(C)C=C(C)C(O)C(OC)C(=O)C(C)CC(C)C=CC=CC=C1C (stereo unspecified) + CC(C)NCC(C(=O)N1CCN(c2ncnc3c2C(C)CC3O)CC1)c1ccc(Cl)cc1,IC50,"curve of first compound, second compound 0.3 µM",> 100 nM
same,IC50,"curve of first compound, second compound 0.949 µM",> 100 nM
same,IC50,"curve of first compound, second compound 3 µM",> 100 nM
same,IC50,"curve of first compound, second compound 9.49 µM",> 100 nM
same,IC50,"curve of first compound, second compound 30 µM",> 100 nM
same,"viability, T/C","second compound 0.3 µM, first compound 0.000316 µM",93.1%
same,"viability, T/C","second compound 0.3 µM, first compound 0.001 µM",102%
same,"viability, T/C","second compound 0.3 µM, first compound 0.00316 µM",104%
same,"viability, T/C","second compound 0.3 µM, first compound 0.01 µM",107%
same,"viability, T/C","second compound 0.3 µM, first compound 0.0316 µM",101%
same,"viability, T/C","second compound 0.3 µM, first compound 0.1 µM",102%
same,"viability, T/C","second compound 0.949 µM, first compound 0.000316 µM",103%
same,"viability, T/C","second compound 0.949 µM, first compound 0.001 µM",106%
same,"viability, T/C","second compound 0.949 µM, first compound 0.00316 µM",100%
same,"viability, T/C","second compound 0.949 µM, first compound 0.01 µM",92.1%
same,"viability, T/C","second compound 0.949 µM, first compound 0.0316 µM",87.3%
same,"viability, T/C","second compound 0.949 µM, first compound 0.1 µM",83.5%
same,"viability, T/C","second compound 3 µM, first compound 0.000316 µM",100%
same,"viability, T/C","second compound 3 µM, first compound 0.001 µM",97.1%
same,"viability, T/C","second compound 3 µM, first compound 0.00316 µM",82.9%
same,"viability, T/C","second compound 3 µM, first compound 0.01 µM",76.5%
same,"viability, T/C","second compound 3 µM, first compound 0.0316 µM",71.1%
same,"viability, T/C","second compound 3 µM, first compound 0.1 µM",74.4%
same,"viability, T/C","second compound 9.49 µM, first compound 0.000316 µM",83.8%
same,"viability, T/C","second compound 9.49 µM, first compound 0.001 µM",83.1%
same,"viability, T/C","second compound 9.49 µM, first compound 0.00316 µM",69%
same,"viability, T/C","second compound 9.49 µM, first compound 0.01 µM",71.4%
same,"viability, T/C","second compound 9.49 µM, first compound 0.0316 µM",64.3%
same,"viability, T/C","second compound 9.49 µM, first compound 0.1 µM",60.3%
same,"viability, T/C","second compound 30 µM, first compound 0.000316 µM",73.9%
same,"viability, T/C","second compound 30 µM, first compound 0.001 µM",69%
same,"viability, T/C","second compound 30 µM, first compound 0.00316 µM",63.9%
same,"viability, T/C","second compound 30 µM, first compound 0.01 µM",58.7%
same,"viability, T/C","second compound 30 µM, first compound 0.0316 µM",60.1%
same,"viability, T/C","second compound 30 µM, first compound 0.1 µM",54.5%
